Assay results as given in ChEMBL document CHEMBL1137052 (Bioorg Med Chem Lett, 2004).

Columns and labels:
[1] = biological target: T1, Polyunsaturated fatty acid 5-lipoxygenase (Homo sapiens, UniProt P09917); experiment: Inhibition of 5-lipoxygenase activity in human whole blood assay; assay type: tissue-based
T1 sequence (P09917 whole entry): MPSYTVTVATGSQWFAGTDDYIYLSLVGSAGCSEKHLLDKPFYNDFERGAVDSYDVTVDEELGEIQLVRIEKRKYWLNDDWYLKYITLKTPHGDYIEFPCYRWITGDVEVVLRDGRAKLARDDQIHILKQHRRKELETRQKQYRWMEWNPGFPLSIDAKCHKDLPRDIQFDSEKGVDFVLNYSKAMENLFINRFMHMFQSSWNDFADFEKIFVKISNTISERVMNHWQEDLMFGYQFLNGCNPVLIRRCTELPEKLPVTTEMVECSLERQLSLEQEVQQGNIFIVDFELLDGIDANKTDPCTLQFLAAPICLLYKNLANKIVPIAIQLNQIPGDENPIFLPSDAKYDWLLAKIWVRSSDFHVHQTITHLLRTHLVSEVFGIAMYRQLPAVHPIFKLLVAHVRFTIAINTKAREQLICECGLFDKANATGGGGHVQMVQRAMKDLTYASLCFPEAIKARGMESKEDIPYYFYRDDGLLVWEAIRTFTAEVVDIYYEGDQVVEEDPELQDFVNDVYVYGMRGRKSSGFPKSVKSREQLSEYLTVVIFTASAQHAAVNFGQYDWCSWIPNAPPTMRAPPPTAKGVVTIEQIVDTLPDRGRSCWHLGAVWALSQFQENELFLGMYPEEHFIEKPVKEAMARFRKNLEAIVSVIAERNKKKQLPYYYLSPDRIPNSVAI

[2] = Bioavailability in rat (dose 2 mg/kg p.o./i.v.); assay type: ADME, organism-based; conditions: in vivo, po
[3] = Maximum plasma concentration in rat upon oral/iv administration at 2 mg/kg; assay type: ADME, organism-based; parameters: dose 2 mg/kg
[4] = Plasma concentration of compound in guinea pig after 3h of oral dose of 2 mg/kg; assay type: ADME, organism-based, Cavia porcellus; parameters: dose 2 mg/kg, route oral
[5] = Metabolic clearance in human liver microsomes; assay type: ADME, Microsome; conditions: read-out: Clearance
Cavia porcellus [6] = experiment: Percent inhibition of histamine-induced bronchoconstriction in guinea pig after 3h of oral dose of 2 mg/kg
[7] = Metabolic clearance in guinea pig liver microsomes; assay type: ADME, Cavia porcellus, Microsome; conditions: read-out: Clearance
Cavia porcellus [8] = experiment: Percent inhibition of calcium ionophore-induced LTB4 production in guinea pig after 3h of oral dose of 2 mg/kg
[9] = Area under plasma concentration-time curve in rat upon oral/iv administration at 2 mg/kg; assay type: ADME, organism-based; parameters: dose 2 mg/kg; conditions: in vivo
[10] = Metabolic clearance in rat liver microsomes; assay type: ADME, Microsome; conditions: read-out: Clearance
[11] = read-out: Concentration, in vivo

Compound | IC50 [1] [nM] | microsomal CLint [5] [µL/min/mg] | microsomal CLint [7] [µL/min/mg] | microsomal CLint [10] [µL/min/mg] | other results
NC(=O)N(O)CCC#Cc1ccc(OCCCN2CCN(C(c3ccc(F)cc3)c3ccc(F)cc3)CC2)cc1 | 90 | – | – | – | –
NC(=O)N(O)CCC#Cc1ccc(OCCN2CCC(=C3c4ccc(Cl)cc4CCc4cccnc43)CC2)cc1 | 185 | 15 | 105 | 101 | bioavailability [2]: 8%; Cmax [3]: 30 ng/mL; concentration ([4]; in vivo): 72 ng/mL; concentration [4, 11]: 129 nM; inhibition in vivo at 2 mg/kg (Cavia porcellus [6]): 65%; inhibition in vivo at 2 mg/kg (Cavia porcellus [8]): 84%; AUC [9]: 83 ng·h/mL
NC(=O)N(O)CCC#Cc1ccc(OCCCCN2CCN([C@H](c3ccccc3)c3ccc(Cl)cc3)CC2)cc1 | 68 | – | – | – | –
NC(=O)N(O)CCC#Cc1ccc(OCCCN2CCN([C@H](c3ccccc3)c3ccc(Cl)cc3)CC2)cc1 | 96 | – | 99 | 108 | –
NC(=O)N(O)CCC#Cc1ccc(OCCN2CCN(C(c3ccc(F)cc3)c3ccc(F)cc3)CC2)cc1 | 48 | – | – | – | –
NC(=O)N(O)CCC#Cc1ccc(OCCCN2CCC(=C3c4ccc(Cl)cc4CCc4cccnc43)CC2)cc1 | 194 | – | – | – | –
NC(=O)N(O)CCC#Cc1ccc(OCCCCN2CCC(=C3c4ccc(Cl)cc4CCc4cccnc43)CC2)cc1 | 57 | – | – | – | –
NC(=O)N(O)CCC#Cc1ccc(OCCN2CCN([C@H](c3ccccc3)c3ccc(Cl)cc3)CC2)cc1 | 213 | 2 | 19 | 48 | bioavailability [2]: 23%; Cmax [3]: 66 ng/mL; concentration ([4]; in vivo): 187 ng/mL; concentration [4, 11]: 350 nM; inhibition in vivo at 2 mg/kg (Cavia porcellus [6]): 62%; inhibition in vivo at 2 mg/kg (Cavia porcellus [8]): 41%; AUC [9]: 300 ng·h/mL
NC(=O)N(O)CCC#Cc1ccc(OCCCCN2CCN(C(c3ccc(F)cc3)c3ccc(F)cc3)CC2)cc1 | 89 | 13 | 111 | 138 | –
